In patent US20260132129A1 (Genesis Therapeutics, Inc., priority 2022, published 2026):

Molecular target: T1, PI3Kα H1047R (T47D cells) (Homo sapiens, UniProt P42336, H1047R)
T1 construct: endogenous in cells; host or cells: T47D cells
Experiment: PI3Kα cellular assay: pAKT HTRF in T47D cells after EGF stimulation
Assay type: cell-based
Conditions: for IC50: T47D cells (PI3Kα H1047R), pAKT S473 HTRF, 1 hr compound, 20 ng/ml EGF 10 min
How it was run: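 T47D cells (PIK3CA H1047R) serum-starved 16 h, then treated 1 h at 37 °C with compound (10,000 nM top, 3-fold steps to 0.5 nM). After 10 min stimulation with 20 ng/mL EGF, cells were lysed and pAKT measured by HTRF.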

T1 sequence (P42336 whole entry H1047R): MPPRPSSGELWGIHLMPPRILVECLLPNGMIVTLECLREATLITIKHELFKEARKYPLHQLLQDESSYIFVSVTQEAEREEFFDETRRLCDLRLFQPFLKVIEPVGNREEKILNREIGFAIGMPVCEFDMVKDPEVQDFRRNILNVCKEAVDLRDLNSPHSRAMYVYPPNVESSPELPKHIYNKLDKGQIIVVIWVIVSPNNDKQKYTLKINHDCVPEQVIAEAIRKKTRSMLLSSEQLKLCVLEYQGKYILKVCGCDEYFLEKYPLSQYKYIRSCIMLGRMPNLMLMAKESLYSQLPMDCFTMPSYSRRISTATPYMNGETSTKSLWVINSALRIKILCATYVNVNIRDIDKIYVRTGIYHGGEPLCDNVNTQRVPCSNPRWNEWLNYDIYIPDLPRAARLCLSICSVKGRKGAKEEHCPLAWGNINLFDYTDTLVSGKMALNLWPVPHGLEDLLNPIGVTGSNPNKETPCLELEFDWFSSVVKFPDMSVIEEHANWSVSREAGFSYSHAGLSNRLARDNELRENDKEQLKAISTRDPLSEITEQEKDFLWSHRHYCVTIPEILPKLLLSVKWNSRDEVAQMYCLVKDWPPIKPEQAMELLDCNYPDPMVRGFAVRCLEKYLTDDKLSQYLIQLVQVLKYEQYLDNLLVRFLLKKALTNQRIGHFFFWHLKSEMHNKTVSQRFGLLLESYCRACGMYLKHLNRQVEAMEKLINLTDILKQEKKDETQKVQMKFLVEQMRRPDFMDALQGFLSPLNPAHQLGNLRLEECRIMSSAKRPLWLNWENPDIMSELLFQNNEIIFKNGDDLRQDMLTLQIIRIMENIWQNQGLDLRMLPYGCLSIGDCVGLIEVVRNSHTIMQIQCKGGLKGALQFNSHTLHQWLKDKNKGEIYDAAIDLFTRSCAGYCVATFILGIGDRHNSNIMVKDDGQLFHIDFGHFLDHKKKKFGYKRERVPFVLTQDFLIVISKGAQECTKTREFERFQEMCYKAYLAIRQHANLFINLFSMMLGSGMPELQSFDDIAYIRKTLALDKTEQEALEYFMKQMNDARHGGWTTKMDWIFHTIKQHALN
T1 sequence (P27986 whole entry partner): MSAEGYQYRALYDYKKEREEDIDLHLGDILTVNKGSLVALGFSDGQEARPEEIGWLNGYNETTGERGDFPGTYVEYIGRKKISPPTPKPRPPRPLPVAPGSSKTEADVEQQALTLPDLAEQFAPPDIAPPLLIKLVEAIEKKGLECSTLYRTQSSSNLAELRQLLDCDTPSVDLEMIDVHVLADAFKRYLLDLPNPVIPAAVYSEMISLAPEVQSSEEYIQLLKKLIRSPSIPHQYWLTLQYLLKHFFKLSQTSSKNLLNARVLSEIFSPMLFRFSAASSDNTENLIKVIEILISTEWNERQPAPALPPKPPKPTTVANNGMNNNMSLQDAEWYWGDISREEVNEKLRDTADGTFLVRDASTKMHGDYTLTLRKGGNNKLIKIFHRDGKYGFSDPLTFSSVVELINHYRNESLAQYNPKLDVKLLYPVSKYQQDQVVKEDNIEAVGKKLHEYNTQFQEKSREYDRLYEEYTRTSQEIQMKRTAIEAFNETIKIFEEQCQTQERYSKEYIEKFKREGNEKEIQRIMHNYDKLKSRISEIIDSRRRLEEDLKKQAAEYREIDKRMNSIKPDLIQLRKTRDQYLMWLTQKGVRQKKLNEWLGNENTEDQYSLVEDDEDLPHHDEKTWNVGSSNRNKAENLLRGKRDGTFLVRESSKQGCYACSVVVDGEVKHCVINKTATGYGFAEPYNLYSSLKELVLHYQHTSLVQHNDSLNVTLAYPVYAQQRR

| IC50 | T47D pAKT S473 HTRF IC50 (H1047R): T47D (H1047R) selectivity over SKBR3 (WT) | SMILES |
| --- | --- | --- |
| 500 to 2000 nM | B (B denotes 20-fold≥value>5-fold) | Cc1cc(C(C)Nc2ccccc2C(=O)O)c2nc(-c3ccc4[nH]cnc4c3)cc(=O)n2c1 (stereo not shown) [Compound 515] |
| 100 to 500 nM | A (A denotes >20-fold) | Cc1cc([C@@H](C)Nc2ccccc2C(=O)O)c2nc(-c3ccc4[nH]cnc4c3)cc(=O)n2c1 [Compound 516] |
| > 2000 nM | C (C denotes ≤5-fold) | Cc1cc([C@H](C)Nc2ccccc2C(=O)O)c2nc(-c3ccc4[nH]cnc4c3)cc(=O)n2c1 [Compound 517] |
| > 2000 nM | C (C denotes ≤5-fold) | CC(=O)Oc1nc2ccc(-c3cc(=O)n4cc(C)cc([C@H](C)Nc5ccccc5C(=O)O)c4n3)cn2n1 [Compound 518] |
| > 2000 nM | C (C denotes ≤5-fold) | Cc1cc(C(C)Nc2ccccc2C(=O)O)c2nc(-c3ccc4nc(NC(=O)C5CC5)nn4c3)cc(=O)n2c1 (stereo not shown) [Compound 519] |
| > 2000 nM | C (C denotes ≤5-fold) | Cc1cc([C@@H](C)Nc2ccccc2C(=O)O)c2nc(-c3ccc4nc(NC(=O)C5CC5)nn4c3)cc(=O)n2c1 [Compound 520] |
| > 2000 nM | C (C denotes ≤5-fold) | Cc1cc([C@H](C)Nc2ccccc2C(=O)O)c2nc(-c3ccc4nc(NC(=O)C5CC5)nn4c3)cc(=O)n2c1 [Compound 521] |
| > 2000 nM | C (C denotes ≤5-fold) | CC(=O)N1CCC(c2cc(=O)n3cc(C)cc([C@@H](C)Nc4ccccc4C(=O)O)c3n2)CC1 [Compound 522] |
| 500 to 2000 nM | B (B denotes 20-fold≥value>5-fold) | CC(=O)N1CCC(c2cc(=O)n3cc(C)cc([C@H](C)Nc4ccccc4C(=O)O)c3n2)CC1 [Compound 523] |
| > 2000 nM | C (C denotes ≤5-fold) | Cc1cc(C(C)Nc2ccccc2C(=O)O)c2nc(C3CCN(C(=O)C4(N)CC4)CC3)cc(=O)n2c1 (stereo not shown) [Compound 524] |
| > 2000 nM | C (C denotes ≤5-fold) | Cc1cc([C@@H](C)Nc2ccccc2C(=O)O)c2nc(C3CCN(C(=O)C4(N)CC4)CC3)cc(=O)n2c1 [Compound 525] |
| > 2000 nM | C (C denotes ≤5-fold) | Cc1cc([C@H](C)Nc2ccccc2C(=O)O)c2nc(C3CCN(C(=O)C4(N)CC4)CC3)cc(=O)n2c1 [Compound 526] |
| > 2000 nM | C (C denotes ≤5-fold) | Cc1cc(C(C)Nc2ccccc2C(=O)O)c2nc(N3CCN(C(=O)CN)CC3)cc(=O)n2c1 (stereo not shown) [Compound 527] |
| > 2000 nM | C (C denotes ≤5-fold) | Cc1cc([C@H](C)Nc2ccccc2C(=O)O)c2nc(N3CCN(C(=O)CN)CC3)cc(=O)n2c1 [Compound 528] |
| > 2000 nM | C (C denotes ≤5-fold) | Cc1cc(C(C)Nc2ccccc2C(=O)O)c2nc(N3CCN(C(=O)CCN)CC3)cc(=O)n2c1 (stereo not shown) [Compound 529] |
| > 2000 nM | C (C denotes ≤5-fold) | Cc1cc(C(C)Nc2ccccc2C(=O)O)c2nc(N3CCN(CCC(N)=O)CC3)cc(=O)n2c1 (stereo not shown) [Compound 530] |
| 500 to 2000 nM | B (B denotes 20-fold≥value>5-fold) | Cc1cc([C@@H](C)Nc2ccccc2C(=O)O)c2nc([C@H]3CCOC3)cc(=O)n2c1 [Compound 537] |

| IC50 | T47D pAKT S473 HTRF IC50 (H1047R): T47D (H1047R) selectivity over SKBR3 (WT) | SMILES |
| --- | --- | --- |
| > 2000 nM | C (C denotes ≤5-fold) | Cc1cc([C@@H](C)Nc2ccccc2C(=O)O)c2nc([C@@H]3CCOC3)cc(=O)n2c1 [Compound 538] |
| 500 to 2000 nM | B (B denotes 20-fold≥value>5-fold) | Cc1cc([C@H](C)Nc2ccccc2C(=O)O)c2nc([C@H]3CCOC3)cc(=O)n2c1 [Compound 539] |
| 100 to 500 nM | A (A denotes >20-fold) | Cc1cc([C@@H](C)Nc2ccccc2C(=O)O)c2nc(-c3ccc4[nH]c(=O)oc4c3)cc(=O)n2c1 [Compound 541] |
| > 2000 nM | C (C denotes ≤5-fold) | Cc1cc([C@H](C)Nc2ccccc2C(=O)O)c2nc(-c3ccc4[nH]c(=O)oc4c3)cc(=O)n2c1 [Compound 542] |
| > 2000 nM | C (C denotes ≤5-fold) | Cc1cc(C(C)Nc2ccccc2C(=O)O)c2nc(C3CCC(NS(C)(=O)=O)CC3)c(C)c(=O)n2c1 (stereo not shown) [Compound 543] |
| > 2000 nM | C (C denotes ≤5-fold) | Cc1cc(C(C)Nc2ccccc2C(=O)O)c2nc(C3CCC(NS(C)(=O)=O)CC3)c(C)c(=O)n2c1 (stereo not shown) [Compound 544] |
| > 2000 nM | C (C denotes ≤5-fold) | Cc1cc([C@@H](C)Nc2ccccc2C(=O)O)c2nc(Nc3ccc4[nH]c(=O)oc4c3)cc(=O)n2c1 [Compound 546] |
| > 2000 nM | C (C denotes ≤5-fold) | Cc1cc([C@H](C)Nc2ccccc2C(=O)O)c2nc(Nc3ccc4[nH]c(=O)oc4c3)cc(=O)n2c1 [Compound 547] |
| > 2000 nM | C (C denotes ≤5-fold) | Cc1cc(C(C)Nc2ccccc2C(=O)O)c2nc(Nc3ccc4[nH]c(=O)oc4c3)cc(=O)n2c1 (stereo not shown) [Compound 548] |
| > 2000 nM | C (C denotes ≤5-fold) | Cc1cc(C(C)Nc2ccccc2C(=O)O)c2nc(N3CCN(CCC(N)=O)CC3)cc(=O)n2c1 (stereo not shown) [Compound 550] |
| > 2000 nM | C (C denotes ≤5-fold) | Cc1cc(C(C)Nc2ccccc2C(=O)O)c2nc(N3CCN(CCC(N)=O)CC3)cc(=O)n2c1 (stereo not shown) [Compound 551] |
|  | C (C denotes ≤5-fold) | C=C(C)C1CCCC(c2cc(=O)n3cc(C)cc([C@@H](C)Nc4ccccc4C(=O)O)c3n2)CC1 (stereo partly shown) [Compound 552] |
| > 2000 nM | C (C denotes ≤5-fold) | Cc1cc(C(C)Nc2ccccc2C(=O)O)c2nc(N3CCN(C(C)(C)C(N)=O)CC3)cc(=O)n2c1 (stereo not shown) [Compound 554] |
| > 2000 nM | C (C denotes ≤5-fold) | Cc1cc([C@@H](C)Oc2ccccc2C(N)=O)c2nc(N3CCOCC3)cc(=O)n2c1 [Compound 562] |
| > 2000 nM | C (C denotes ≤5-fold) | Cc1cc([C@@H](C)Nc2cccc3[nH]c(=O)oc23)c2nc(N3CCOCC3)cc(=O)n2c1 [Compound 565] |
| > 2000 nM | C (C denotes ≤5-fold) | Cc1cc([C@H](C)Nc2cccc3[nH]c(=O)oc23)c2nc(N3CCOCC3)cc(=O)n2c1 [Compound 566] |
| 100 to 500 nM | A (A denotes >20-fold) | Cc1cc(C(C)Nc2ccccc2S(N)(=O)=O)c2nc(-c3cc(C)c4oc(=O)[nH]c4c3)cc(=O)n2c1 (stereo not shown) [Compound 570] |
